The results in this text go back to US9855239B2, “Methods for the treatment and prevention of age-related retinal dysfunction” (University of Washington, priority 2008, dated 2018).

“Also recorded” adds a separate entry of the source.

Data set [1] can be described thus: Husbandry: activity, coat and skin appearance, body weight, tolerability.
Experimental: Animals were evaluated weekly for activity and changes in coat and skin appearance.
For the long-term study (FIGS. 1B and 1C, Table 1), mice were obtained at 3 months of age and raised until 4 months of age before the experiments were initiated. Mice then were gavaged with 9-cis-R-Ac or vehicle solution once a month for different durations. Six groups of mice were studied (FIG. 1B). The first 3 groups (C0 C1 and C2, total n=35 for each group) were treated as controls and tested at 4, 10 and 14 months of age. The other 3 groups (N1, N2 and N3, n=35) were gavaged with 9-cis-R-Ac. Group N1 was gavaged for 6 months and tested at 10 months of age. Group N2 was gavaged with 9-cis-R-Ac for 10 months and tested at 14 months of age. Group N3, was gavaged with vehicle until 10 months of age and then received 9-cis-R-Ac monthly until testing at 14 months of age.
The next data set deals with T1, rhodopsin/opsin (Mus musculus, UniProt P15409).
T1 construct: from tissue; host or cells: whole eyes of wild-type C57BL/6 female mice
The experiment in a line: Rhodopsin regeneration ratio of immunoaffinity-purified rhodopsin/opsin, single dose. Type of data set: in vivo. The procedure: Forty eight hr dark-adapted, 10-month-old mice were gavaged with a single dose (˜80 mg/kg body weight) of 9-cis-R-Ac or control vehicle and exposed to strong illumination for 20 min (500 cd·m^−2 that bleached ˜90% rhodopsin). Next, mice were dark-adapted for 16 hr after which various analyses were performed (FIG. 1A). […] To investigate whether 9-cis-retinal was utilized to form isorhodopsin and to assess how much unliganded opsin was present in the mouse eyes, rhodopsin, isorhodopsin and opsin were purified by immunoaffinity chromatography from treated and control groups of mice. […] After bleaching, 9-cis-retinal is bound to opsin even in the presence of a functional retinoid cycle that produces 11-cis-retinal to regenerate rhodopsin. Eyes from non-bleached or bleached and dark-adapted untreated mice contained a small amount of free opsin.
9-cis-R-Ac was prepared as previously described (Batten, M. L., et al. PLoS medicine 2, e333 (2005); Batten, M. L., et al. J Biol Chem 279, 10422-10432 (2004)). A dose of ˜80 mg/kg body weight of 9-cis-R-Ac in 150 μl vegetable oil was administered via gavage to each treated animal. Prior to single dose experiments (FIG. 1A, Table 1), 10-month-old mice were dark-adapted for more than 48 hr, gavaged with 9-cis-R-Ac or vehicle control solution 1 hr before bleaching, exposed to light for 20 min at 500 cd·m^−2 and dark-adapted for 16 hr before analysis.
Rhodopsin purification was done under dim red light as previously described (Zhu, L., et al. J Biot Chem, 279, 53828-53839 (2004)). […] Purified rhodopsin concentration was determined at 500 nm and total amount of opsin and rhodopsin at 280 nm with a Hewlett-Packard 8452A UV-visible spectrophotometer (Palczewski, K., Carruth, M. E., Adamus, G., McDowell, J. H. & Hargrave, P. A. Vision Research, 30, 1129-1137 (1990)). […]

The test system of the next data set is retina. The experiment in a line: Retinal morphology (light and electron microscopy). Type of data set: in vivo, mouse. Here is the method: The thickness of each major layer in the retina was also similar between control and treated groups.
For light microscopy, mouse eyecups were fixed with 2.5% glutaraldehyde and 1.6% paraformaldehyde in 0.08 M 1,4-piperazinediethanesulfonate buffer (PIPES) (pH 7.4) containing 2% sucrose for ˜1 hr at room temperature followed by 23 hr at 4° C. Eyecups then were washed with 0.13 M sodium phosphate buffer (pH 7.3) and dehydrated through a CH3OH series and embedded in JB4 glycol metacrylate. Sections (6 μm) were stained by immersion in 5% Richardson's stain for 1.5-2 min at room temperature and destained in 0.13 M sodium phosphate (pH 7.3) until the retinal layers were visible by light microscopy (about 8-15 min). For transmission electron microscopy, mouse eyecups were analyzed as described previously (Maeda, A., et al. J Blot Chem 280, 18822-18832 (2005); Maeda, T., Lem, J., Palczewski, K. & Haeseleer, F. Investigative ophthalmology & visual science 46, 4320-4327 (2005)).

T1 sequence (P15409 whole entry): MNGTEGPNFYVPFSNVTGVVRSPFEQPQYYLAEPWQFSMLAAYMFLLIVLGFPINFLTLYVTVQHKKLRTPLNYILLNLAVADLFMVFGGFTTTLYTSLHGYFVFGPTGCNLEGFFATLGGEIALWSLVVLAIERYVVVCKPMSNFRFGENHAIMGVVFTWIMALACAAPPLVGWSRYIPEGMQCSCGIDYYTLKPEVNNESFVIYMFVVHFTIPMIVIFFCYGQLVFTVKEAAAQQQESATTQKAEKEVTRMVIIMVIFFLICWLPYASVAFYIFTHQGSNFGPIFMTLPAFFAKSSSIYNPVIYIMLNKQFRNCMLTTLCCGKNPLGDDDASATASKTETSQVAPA

As for `CC(=O)OC/C=C(C)/C=C/C=C(C)\C=C\C1=C(C)CCCC1(C)C` [9-cis-R-Ac, 9-cis-retinyl acetate], the “activity and changes in coat and skin appearance” value in data set [1] (evaluated weekly during the experimental period) is given as “No changes”. For the same molecule, the body weights entry in data set [1] (pre-treatment, 10 months and 14 months, control (C1-2) vs treated (N1-3)) is “no significant differences”. The “regeneration ratio of rhodopsin (absorbance 498 nm/280 nm)” value at rhodopsin/opsin (single dose ~80 mg/kg gavage, 10-month-old mice, bleached, 16 hr dark-adapted, treated vs control, 80 mg/kg) is recorded as “significantly higher; also recorded: improved; also recorded: slightly higher”. The “9-cis-retinal extracted from purified proteins (bound chromophore)” value on rhodopsin/opsin (single dose, samples from treated mice) was “a significant amount of 9-cis-retinal was detected”. In addition, at rhodopsin/opsin (single dose, treated vs control), the “total amount of purified protein” value is “did not significantly differ”. Further, the “retinal abnormalities by light microscopy” value with retina (10 and 14 months of age) is “no major abnormalities”. In the data set with retina (control vs treated), the “EM analysis of the outer retina and RPE layer” value is reported as “no gross differences”; the “thickness of each major layer in the retina” value is listed as “similar”. For the same molecule, in the data set on retina (control vs treated at 10 and 14 months of age), the “lengths of rod outer segments (ROS)” value is “similar”.
